Where a name gives a salt, the structure may show the parent alone.
How the values were obtained:
[1] = highest concentration, 14 days of treatment tid in rabbits
[2] = aqueous solution 45.00 mg/mL, pH 4.8
Experimental: The proposed formulations are calculated for a single puff of 50 μL/nostril.

[3] = pH of the formulations / aqueous solutions; format: physicochemical; conditions: aqueous solutions without buffer
[4] = Human absorption: Tizaspray intranasally vs Sirdalud tablets, randomised cross-over, plasma levels of tizanidine by LC/MS/MS over 12 hours; conditions: highest concentration, single administration in humans
Experimental: The plasma levels of tizanidine were determined by LC/MS/MS over 12 hours from the administration.
R=Sirdalud tablet; T1=1*70 μL/puff by intranasal route; T2=2*70 μL/puff by intranasal route.

[5] = animal data, local administration; cited from earlier work
[6] = background, cited from earlier work
[7] = rabbits, 3.00 mg/kg of tizanidine hydrochloride, preliminary

SMILES | tolerability on the nasal mucosa [1] | tolerability on the nasal mucosa (redness or pain) [2] | pH of aqueous solutions [3] | absorption by intranasal route [4] | activity compared with clonidine [5] | absorption by oral route ([6]; 2 or 4 mg tablets) | T1/2z ([6]; known pharmacokinetic profile) | Tmax ([6]; known pharmacokinetic profile) | first-pass effect ([6]; oral route) | bioavailability by intranasal route ([7]; IN vs IM) | intranasal absorption ([7]; IN, without any enhancer)
Clc1ccc2nsnc2c1NC1=NCCN1 [tizanidine hydrochloride] | well tolerated on the nasal mucosa | tolerated by the nasal mucosa without any local side effect | 4.8 | rapidly and completely absorbed | – | – | – | – | – | – | –
Clc1ccc2nsnc2c1NC1=NCCN1 [Tizanidine, 5-chloro-N-(4,5-dihydro-1H-imidazol-2-yl)-2,1,3-benzothia-diazol-4-amine] | – | – | – | – | equivalent activity of tizanidine and clonidine | well and rapidly absorbed by oral route | 1 to 2 h | 1 to 2 h | extensive first-pass effect | close to that of intramuscular route (IM) | rapidly absorbed

From patent US20150141473A1, “PHARMACEUTICAL DOSAGE FORMS OF TIZANIDINE AND ADMINISTRATION ROUTES THEREOF” (priority 2012, published 2015)
